Results from patent US8575147B2, “Spontaneously dispersible N-benzoyl staurosporine compositions” (Novartis AG, priority 1999, dated 2013).

Test: Solubility of N-benzoyl-staurosporine in water, simulated gastric and intestinal fluids
Format: physicochemical
Method: U.S. Pat. No. 5,093,330 specifically discloses two tablet formulations based on starch/lactose mixtures in the presence of colloidal silica, talc and magnesium stearate (Examples 52 and 53) and a capsule formulation based on talc and colloidal silica (Example 54). […] We have found it to be very lipophilic and practically insoluble in water, in simulated gastric and in intestinal fluids (solubility<0.1 mg/L). In particular this exceptional low solubility of the active substance necessitated development of a non-conventional dosage form.

CO[C@@H]1[C@H](N(C)C(=O)c2ccccc2)C[C@H]2O[C@]1(C)n1c3ccccc3c3c4c(c5c6ccccc6n2c5c31)C(=O)NC4 [N-benzoyl-staurosporine]
solubility: < 0.1 mg/L
